According to patent publication EP1377579B1 (Aventis Pharmaceuticals Inc., priority 2000, dated 2002):
Where two headings read alike, the source gives them in different places.

Columns and labels:
[1] = Red blood cell binding, human whole blood; assay type: in vitro ADME; settings: 30 minutes at 37°C, 500 ng/ml
Method: Compounds, including one positive control, are assessed for red blood cell (RBC) uptake, using a modified procedure based on the protocol reported in Sun, J.X.S., et al. High-performance liquid chromatographic analysis, plasma protein binding and red blood cell partitioning of phenprobamate. Biopharmaceutics and Drug Disposition, 8 (1987) 341-351.
Briefly, RBC uptake is evaluated by comparison of the levels in spiked plasma (n=3) and plasma isolated from spiked whole blood (n=3). Compounds are incubated with human and mouse whole blood, respectively, for 30 minutes at 37°C using a nominal concentration of 500 ng/ml. Following centrifugation, the plasma is removed and submitted for analysis. Each compound is also spiked into blank plasma at a nominal concentration of 500 ng/ml, and submitted for analysis. Levels in the two plasma samples (Cp' and Cp in the equation below) and the blood hematocrit are used to determine the red blood cell to plasma ratio (Crbc/Cp). (Crbc)/(Cp) = (Cpʹ)/(Cp•H)-((1-H))/(H) [formula] In equation 1, Cp' is the level of drug in the spiked "blank" plasma, Cp is the level of drug in the plasma of spiked whole blood, and H is the hematocrit. The hematocrit values are determined as 0.4 for human whole blood and 0.41 for mouse whole blood. The samples are analyzed with ESI LC/MS, using positive ion detection with an internal standard.
The red blood cell to plasma ratio is determined for each compound using equation 1. Tables 6 and 7 summarize the respective mean Crbc/Cp values and standard deviations for mouse and human whole blood, respectively, in descending order based on the red blood cell to plasma ratio, where"*" denotes Positive Control, and "ND" denotes Not Determined. MDL 108552 is included as a positive control for red blood cell uptake. Table 6. Red Blood Cell to Plasma Ratio for compounds in mouse whole blood

[2] = Bioavailability experiment in mice given single intravenous cassette doses; settings: for Conc. (ng/ml) in plasma / Conc. in plasma: mice; for Conc. (ng/ml) in plasma: 24 h, BLQ = below assay quantification limit; for Cls: mice plasma, single intravenous cassette dose; for Conc. in plasma: single 15 mg/kg intravenous cassette dose (3 mg/kg/compound), Cassette #3, 24 h, BLQ = below assay quantification limit (approximately 1 ng/ml)
Method: (§1) Male mice are given single intravenous cassette doses of CDK inhibitor compounds.
(§2) Doses are adjusted for the weight of the individual dihydrochloride and trihydrochloride salts. The compounds are stored desiccated within a closed cabinet at room temperature before use. Dose levels are prepared on the morning of each study.
(§3) A single intravenous cassette dose (18 or 15 mg/kg free base) is administered. For each compound, this is equivalent to a dose of approx. 3 mg/kg free base. […] The dose is administered at a volume of 10 ml/kg (total volume of approximately 0.25 ml/animal).
(§4) Male mice (Hsd:ICR (CD-1® SD®), Harlan), each weighing approximately 20 - 30 g at the start of the study. […] Water is available ad libitum throughout the study.
(§5) Dose Administration and Sample Collection: • A single cassette dose of 5-6 compounds is administered by bolus injection into the tail vein over a 10 - 15-second period. […] Whole blood (approximately 0.6 ml/sample) is obtained by cardiac puncture and transferred to 3 ml glass tubes containing 45 U sodium heparin.
(§6) Sample Processing: Plasma: Whole blood is centrifuged at approximately 3,200 rpm for 10 min at approximately 5°C and the plasma (approx. 0.3 ml/sample) is transferred to chilled plastic vials and stored at approx. -70°C until bioanalysis.
(§7) Sample Analysis: Concentrations of each test article in plasma are quantitated by a non-validated method based on LC/MS using the following protocol.
(§8) Samples are removed from the freezer, allowed to thaw at room temperature, and vortexed to insure complete homogenization prior to sample manipulation. Samples are then prepared according to the following scheme: • 1. transfer 48 µL of plasma (blank mouse sample) into a 12 x 75 mm test tube. • 2. add 12 µL of working standard to the blank plasma for standard curve preparation. • 3. […] Inject 25 µL on LC/MS.
(§9) Data Analysis: Concentrations of Compounds in plasma of individual animals are determined by bioanalytics. […] Statistical analyses are limited to simple expressions of variation (mean and standard deviation). The plasma AUC (area-under-curve) is determined by the linear trapezoidal rule. […] All PK parameters are determined by noncompartmental methods using WinNonlin version 3.0 (Pharsight Corp). Plasma vs. time profiles are prepared by Sigma Plot (SPSS, Inc.).

Jurkat = assay: In vitro proliferation assay (MTT), Jurkat; assay type: cell-based; settings: Homo sapiens, read-out: Jurkat Leuk. (IC50 µM)
Outline: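 Plate 1000–2500 cells/well, RPMI 1640 + 5 % FBS, 3 mM L-glutamine; attach overnight → compound treatment 3 days → MTT, 37 C, 2–4 hr → remove medium, solubilize in DMSO → absorbance 570 nm → IC50.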

cdk1/cyclin B = cdk1/cyclin B (Homo sapiens, UniProt P06493); assay: Cyclin-dependent kinase assay, cdk1/cyclin B; settings: CDK1 IC50, nM, Histone H1, 10 µM ATP
cdk1/cyclin B, sequence (P06493 whole entry): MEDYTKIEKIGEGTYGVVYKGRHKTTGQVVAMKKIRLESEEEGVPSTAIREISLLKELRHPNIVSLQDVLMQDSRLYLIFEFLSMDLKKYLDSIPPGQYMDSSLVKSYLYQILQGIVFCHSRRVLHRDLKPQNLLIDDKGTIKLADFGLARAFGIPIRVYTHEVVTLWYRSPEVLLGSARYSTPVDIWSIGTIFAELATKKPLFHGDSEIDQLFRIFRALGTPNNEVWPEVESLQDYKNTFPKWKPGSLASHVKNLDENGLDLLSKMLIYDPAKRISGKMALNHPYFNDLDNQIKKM
cdk1/cyclin B, sequence (P14635 whole entry partner): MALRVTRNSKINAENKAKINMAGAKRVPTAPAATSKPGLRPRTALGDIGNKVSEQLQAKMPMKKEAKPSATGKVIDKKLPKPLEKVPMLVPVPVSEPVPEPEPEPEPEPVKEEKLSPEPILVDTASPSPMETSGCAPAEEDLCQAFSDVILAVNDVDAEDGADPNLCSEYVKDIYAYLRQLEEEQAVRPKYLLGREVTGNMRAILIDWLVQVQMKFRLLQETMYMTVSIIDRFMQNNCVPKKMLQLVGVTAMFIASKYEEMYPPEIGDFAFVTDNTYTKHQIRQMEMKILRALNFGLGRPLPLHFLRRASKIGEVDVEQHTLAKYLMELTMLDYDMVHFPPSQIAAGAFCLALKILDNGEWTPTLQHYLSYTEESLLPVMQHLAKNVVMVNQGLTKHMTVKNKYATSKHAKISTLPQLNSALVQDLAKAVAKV

cdk2/cyclin E = cdk2/cyclin E (Homo sapiens, UniProt P24941); assay: Cyclin-dependent kinase assay, cdk2/cyclin E; settings: CDK2 IC50, nM, GST-pRb substrate, 10 µM ATP
Colo-205 = assay: In vitro proliferation assay (MTT), Colo-205; assay type: cell-based; settings: Homo sapiens
Outline: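 Colo-205 cells were seeded at 1000–2500 cells/well and allowed to attach overnight, then exposed to compound for 3 days. Viable cells were measured by MTT reduction (2–4 h, 37 °C), with DMSO-solubilised dye read at 570 nm. IC50 was derived from concentration–response data.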

in vivo = settings: male, Hsd:ICR (CD-1), mouse, plasma
Method: as §1, §2, §3, §4, §5, §6, §7, §8, §9

MDA-MB-435 = assay: In vitro proliferation assay (MTT), MDA-MB-435; assay type: cell-based, human; settings: Homo sapiens
Outline: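 MTT viability, 3 d compound treatment; seeding 1000–2500 cells/well, overnight attachment; formazan in DMSO, A570; IC50 fitted from raw absorbance.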

[3] = Cassette #1, single 18 mg/kg intravenous cassette dose
[4] = 3 mg/kg/compound (18 mg/kg Total Dose), Cassette #1
[5] = Cassette #2, single 18 mg/kg intravenous cassette dose
[6] = 3 mg/kg/compound (18 mg/kg Total Dose), Cassette #2
[7] = COLO 205, read-out: Colo-205 Colon (IC50 µM)
[8] = MDA-MB-435, read-out: MB-435 Breast (IC50 µM)
[9] = 3 mg/kg/compound (15 mg/kg Total Dose), Cassette #3

Row | Structure (SMILES) | Mean Red Blood Cell to Plasma Ratio [1] | Conc. (ng/ml) in plasma [2, 3] | Cls [2, 4] | IC50 (cdk1/cyclin B) | IC50 (cdk2/cyclin E) | AUC(0-inf) (in vivo; iv, 3 mg/kg) | Cmax (in vivo; iv, 3 mg/kg) | half-life (in vivo; iv, 3 mg/kg) | concentration at 0.083 h (in vivo; iv, 18 mg/kg) | concentration at 0.25 h (in vivo; iv, 18 mg/kg) | concentration at 0.5 h (in vivo; iv, 18 mg/kg) | concentration at 1 h (in vivo; iv, 18 mg/kg) | concentration at 3 h (in vivo; iv, 18 mg/kg) | concentration at 6 h (in vivo; iv, 18 mg/kg) | concentration at 8 h (in vivo; iv, 18 mg/kg) | Conc. (ng/ml) in plasma [2, 5] | Cls [2, 6] | IC50 (Jurkat) | IC50 (Colo-205; [7]) | IC50 (MDA-MB-435; [8]) | other results
1 | Cl.Cl.N[C@H]1CC[C@H](Nc2nc(NC3CCN(C(=O)c4cccc(C(F)(F)F)c4F)CC3)c3ncn(C4CCCC4)c3n2)CC1 [compound 12, trans-1-{4-[2-(4-Amino-cyclohexylamino)-9-cyclopentyl-9H-purin-6-ylamino]-piperidin-1-yl}-1-(2-fluoro-3-trifluoromethyl-phenyl)-methanone dihydrochloride] | 3.6 | BLQ | 19.6 mL/min/kg | 88 nM | 5 nM | 2550 ng·h/mL | 4110 ng/mL | 2.3 h | 4110 ± 754 ng/mL | 2360 ± 124 ng/mL | 1090 ± 36.1 ng/mL | 465 ± 34.6 ng/mL | 74.7 ± 17.4 ng/mL | 27 ± 2.7 ng/mL | 16.9 ± 1.4 ng/mL |  |  |  |  |  | IC50 (Jurkat; MTT assay, value (SD, n) where given): 0.48 µM; IC50 (Colo-205; COLO 205, MTT assay, value (SD, n) where given, read-out: Colo-205 Colon (IC50 µM)): 0.21 µM; IC50 (MDA-MB-435; MDA-MB-435, MTT assay, value (SD, n) where given, read-out: MB-435 Breast (IC50 µM)): 0.28 µM
2 | Cl.Cl.N[C@H]1CC[C@H](Nc2nc(NC3CCN(C(=O)Oc4ccc(Br)cc4)CC3)c3ncn(C4CCCC4)c3n2)CC1 [compound 81, trans-4-[2-(4-Amino-cyclohexylamino)-9-cyclopentyl-9H-purin-6-ylamino]-piperidine-1-carboxylic acid 4-bromo-phenyl ester dihydrochloride] | 5.3 |  |  | 16 nM | 39 nM | 660 ng·h/mL | 1770 ng/mL | 1.7 h | 1770 ± 384 ng/mL | 394 ± 142 ng/mL | 164 ± 47.2 ng/mL | 65.3 ± 10 ng/mL | 12.7 ± 3.4 ng/mL | 5.4 ± 1.5 ng/mL | 3.5 ± 0.9 ng/mL | BLQ | 75.8 mL/min/kg | 0.1 µM | 0.03 µM | 0.1 µM | 
3 | COC(=O)c1ccc(OC(=O)N2CCC(Nc3nc(N[C@H]4CC[C@H](N)CC4)nc4c3ncn4C3CCCC3)CC2)cc1.Cl.Cl [compound 83, trans-4-[2-(4-Amino-cyclohexylamino)-9-cyclopentyl-9H-purin-6-ylamino]-piperidine-1-carboxylic acid 4-methoxycarbonyl-phenyl ester dihydrochloride] | 4.1 | BLQ | 111.4 mL/min/kg | 19 nM | 44 nM | 449 ng·h/mL | 1520 ng/mL | 0.7 h | 1520 ± 612 ng/mL | 218 ± 92.8 ng/mL | 61.3 ± 32.9 ng/mL | 14.1 ng/mL | 4.1 ng/mL | 1.6 ng/mL | 6.3 ng/mL |  |  | 0.14 µM | 0.07 µM | 0.17 µM | 
4 | COc1ccc(OC(=O)N2CCC(Nc3nc(N[C@H]4CC[C@H](N)CC4)nc4c3ncn4C3CCCC3)CC2)cc1.Cl.Cl [compound 84, trans-4-[2-(4-Amino-cyclohexylamino)-9-cyclopentyl-9H-purin-6-ylamino]-piperidine-1-carboxylic acid 4-methoxy-phenyl ester dihydrochloride] | 2.0 |  |  | 19 nM | 9 nM | 965 ng·h/mL | 1510 ng/mL | 1.5 h | 1510 ± 377 ng/mL | 883 ± 140 ng/mL | 446 ± 79 ng/mL | 202 ± 37.3 ng/mL | 27 ± 2.4 ng/mL | 6.1 ± 0.8 ng/mL | 2.9 ± 0.2 ng/mL | BLQ | 51.8 mL/min/kg | 0.12 µM | 0.03 µM | 0.1 µM | 
5 | Cl.Cl.N[C@H]1CC[C@H](Nc2nc(NC3CCN(C(=O)Oc4ccc(F)cc4)CC3)c3ncn(C4CCCC4)c3n2)CC1 [compound 87, trans-4-[2-(4-Amino-cyclohexylamino)-9-cyclopentyl-9H-purin-6-ylamino]-piperidine-1-carboxylic acid 4-fluoro-phenyl ester dihydrochloride] | 8.4 |  |  | 15 nM | 42 nM | 513 ng·h/mL | 1170 ng/mL | 1.6 h |  |  |  |  |  |  |  |  |  | 0.2 µM | 0.16 µM | 0.11 µM | Cls [2, 9]: 97.4 mL/min/kg; Conc. in plasma [2]: BLQ^a; concentration at 0.083 h (in vivo; intravenous, 3 mg/kg): 1170 ± 153 ng/mL; concentration at 0.25 h (in vivo; intravenous, 3 mg/kg): 372 ± 35.9 ng/mL; concentration at 0.5 h (in vivo; intravenous, 3 mg/kg): 141 ± 9.5 ng/mL; concentration at 1 h (in vivo; intravenous, 3 mg/kg): 65 ± 14 ng/mL; concentration at 3 h (in vivo; intravenous, 3 mg/kg): 19.2 ± 6 ng/mL; concentration at 6 h (in vivo; intravenous, 3 mg/kg): 4.3 ± 0.7 ng/mL; concentration at 8 h (in vivo; intravenous, 3 mg/kg): 3.2 ± 1.6 ng/mL
6 | Cl.Cl.N[C@H]1CC[C@H](Nc2nc(NC3CCN(C(=O)Oc4ccc(Cl)cc4)CC3)c3ncn(C4CCCC4)c3n2)CC1 [compound 88, trans-4-[2-(4-Amino-cyclohexylamino)-9-cyclopentyl-9H-purin-6-ylamino]-piperidine-1-carboxylic acid 4-chloro-phenyl ester dihydrochloride] | 2.6 |  |  | 35 nM | 7 nM | 642 ng·h/mL | 1480 ng/mL | 1.9 h |  |  |  |  |  |  |  |  |  | 0.02 µM | 0.04 µM | 0.02 µM | Cls [2, 9]: 77.9 mL/min/kg; Conc. in plasma [2]: BLQ; concentration at 0.083 h (in vivo; intravenous, 3 mg/kg): 1480 ± 272 ng/mL; concentration at 0.25 h (in vivo; intravenous, 3 mg/kg): 421 ± 49.9 ng/mL; concentration at 0.5 h (in vivo; intravenous, 3 mg/kg): 150 ± 5.9 ng/mL; concentration at 1 h (in vivo; intravenous, 3 mg/kg): 74.6 ± 16.1 ng/mL; concentration at 3 h (in vivo; intravenous, 3 mg/kg): 24.8 ± 7.4 ng/mL; concentration at 6 h (in vivo; intravenous, 3 mg/kg): 8.9 ± 1.6 ng/mL; concentration at 8 h (in vivo; intravenous, 3 mg/kg): 5.4 ± 2 ng/mL
